The values below come from US20200190135A1, “LASSO STRUCTURES AND THEIR SYNTHESIS” (ChromaCon AG, priority 2016, published 2020).

What all share (format): in vitro ADME
For data set [1], the system named is trypsin. In words: Proteolytic stability, incubation with trypsin. The conditions noted are these: incubation for 24 h with trypsin (FIG. 13). The protocol:
(§1) Proteolytic stability of lasso compounds L1, L2, and L3 in comparison to their branched macrocyclic compounds B1, B2, and B3 and the cyclic peptide analogue C1 (see FIG. 11) was tested in separate experiments by incubation for 24 h with chymotrypsin (FIG. 12), trypsin (FIG. 13) and proteinase K (FIG. 14).

The target of data set [2] is proteinase K (Parengyodontium album, UniProt P06873). In words: Proteolytic stability, incubation with proteinase K. The conditions noted are these: incubation for 24 h with proteinase K (FIG. 14). The protocol:
as §1

Data set [3] is described as follows: Serum stability, incubation with human serum. Particulars: incubation for 24 h with human serum (FIG. 16). Here is the method: Serum stability of compounds L1, L2, and L3 in comparison to their branched macrocyclic compounds B1, B2, and B3, the cyclic peptide C1, and the linear C- and N-terminally unmasked derivative R1 (see FIG. 15) was tested by incubation for 24 h with human serum (FIG. 16).

Numbered stars: 1 amine (or outer) side, 2 acyl side, 3 side chain; on linkers, the order of the positions; unused ones are H or OH. Square brackets hold non-standard residues; d marks the D form. Peptide text beside a SMILES is read from it. * marks the point of attachment. ξ: configuration not given here. X1 = O=C(NCCOCCN(CC(=O)[*:2])[*:1])c1ccc(F)cc1; X2 = c1cc2c(cc1CCN*)OCCOCCOCCOCCOCCOCCO2; Thr(3ξ) = CC(O)[C@H](N)C(=O)O; GABA = NCCCC(=O)O; Cam = NC(=O)C*

Sequence of proteinase K (P06873 106-384): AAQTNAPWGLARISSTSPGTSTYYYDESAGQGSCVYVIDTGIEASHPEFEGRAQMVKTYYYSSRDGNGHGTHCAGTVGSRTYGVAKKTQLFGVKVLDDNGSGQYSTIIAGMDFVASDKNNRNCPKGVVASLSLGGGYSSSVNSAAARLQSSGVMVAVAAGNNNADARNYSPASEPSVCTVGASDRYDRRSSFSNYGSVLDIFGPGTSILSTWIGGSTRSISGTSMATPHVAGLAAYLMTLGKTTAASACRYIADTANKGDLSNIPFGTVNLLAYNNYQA

For the molecule `CC(C)C[C@@H]1NC(=O)[C@H](C(C)O)NC(=O)[C@H](CCCCN)NC(=O)[C@@H](Cc2c[nH]c3ccccc23)NC(=O)[C@H](Cc2ccccc2)NC(=O)[C@H](CSCC(N)=O)NC(=O)CNC(=O)[C@H](Cc2ccccc2)NC(=O)CCCNC1=O` (stereo partly shown) [C1] (cyclo(C(Cam)F[dW]K[Thr(3ξ)]L[GABA]FG)), the “stability versus trypsin degradation” value in data set [1] was “similarly stable as L1-L3”. In addition, in data set [2], the “stability versus proteinase K degradation” value is “similarly stable as L1-L3”.
For `CC(C)C[C@H](NC(=O)[C@@H](NC(=O)[C@H](CCCCN)NC(=O)[C@@H](Cc1c[nH]c2ccccc12)NC(=O)[C@H](Cc1ccccc1)NC(=O)[C@H](CSCC(N)=O)NC(=O)CNC(=O)[C@H](Cc1ccccc1)NC(=O)CNCCOCCNC(=O)c1ccc(F)cc1)[C@@H](C)O)C(=O)NCCCC(=O)NCCc1ccc2c(c1)OCCOCCOCCOCCOCCOCCO2` [L1] (H-[X1]FGC(Cam)F[dW]KTL[GABA]-X2), in data set [3] (read-out: remaining compound at the final time point), the amount remaining at 24 h was approximately 70%.
As for `CC(C)C[C@H](NC(=O)[C@@H](NC(=O)[C@H](CCCCN)NC(=O)[C@@H](Cc1c[nH]c2ccccc12)NC(=O)[C@H](Cc1ccccc1)NC(=O)[C@H](CSCC(N)=O)NC(=O)CNC(=O)[C@@H](N)Cc1ccccc1)[C@@H](C)O)C(=O)O` [R1] (H-FGC(Cam)F[dW]KTL-OH), the “degradation in human serum (in words)” value in data set [3] is “degraded rapidly and completely”.
